Measurements as given in US5041567A, “Antibacterial monic acid derivatives” (Beecham Group plc, priority 1982, dated 1991).
In brackets after ≈: the same amount, converted by molar mass.

Assays:
M. suipneumoniae JF 435 = assay: MIC against mycoplasma in vitro; assay type: cell-based; conditions: Mesomycoplasma hyopneumoniae, JF435, 144 h; M. suipneumoniae JF 435; 6 days, 37° C.; read-out: MIC
M. suipneumoniae HK(2) = assay: MIC against mycoplasma in vitro; assay type: cell-based; conditions: Mesomycoplasma hyopneumoniae, 144 h; M. suipneumoniae HK(2); 6 days, 37° C.; read-out: MIC
[1] = test system: M. suipneumoniae J2206/183^b; assay: MIC against mycoplasma in vitro; assay type: cell-based; conditions: Mesomycoplasma hyopneumoniae, 144 h; M. suipneumoniae J2206/183^b; 6 days, 37° C.; read-out: MIC
[2] = test system: M. suipneumoniae PW/C/210; assay: MIC against mycoplasma in vitro; assay type: cell-based; conditions: Mesomycoplasma hyopneumoniae, 144 h; M. suipneumoniae PW/C/210; 6 days, 37° C.; read-out: MIC
M. suipneumoniae LABER = assay: MIC against mycoplasma in vitro; assay type: cell-based; conditions: Mesomycoplasma hyopneumoniae, 144 h; M. suipneumoniae LABER; 6 days, 37° C.; read-out: MIC
M. suipneumoniae UCD 1 = assay: MIC against mycoplasma in vitro; assay type: cell-based; conditions: Mesomycoplasma hyopneumoniae, UCD1, 144 h; M. suipneumoniae UCD 1; 6 days, 37° C.; read-out: MIC
[3] = test system: M. suipneumoniae ATCC 25095; assay: MIC against mycoplasma in vitro; assay type: cell-based; conditions: Mesomycoplasma hyopneumoniae, ATCC25095, 144 h; M. suipneumoniae ATCC 25095; 6 days, 37° C.; read-out: MIC
[4] = test system: M. suipneumoniae NCTC 10110; assay: MIC against mycoplasma in vitro; assay type: cell-based; conditions: Mesomycoplasma hyopneumoniae, NCTC10110, 144 h; M. suipneumoniae NCTC 10110; 6 days, 37° C.; read-out: MIC
M. hyorhinis ATCC 23234 = assay: MIC against mycoplasma in vitro; assay type: cell-based; conditions: Mesomycoplasma hyorhinis, ATCC23234, 144 h; M. hyorhinis ATCC 23234; 6 days, 37° C.; read-out: MIC
M. hyorhinis ATCC 25021 = assay: MIC against mycoplasma in vitro; assay type: cell-based; conditions: Mesomycoplasma hyorhinis, ATCC25021, 144 h; M. hyorhinis ATCC 25021; 6 days, 37° C.; read-out: MIC
[5] = test system: M. hyosynoviae ATCC 25591; assay: MIC against mycoplasma in vitro; assay type: cell-based; conditions: 144 h; M. hyosynoviae ATCC 25591; 6 days, 37° C.; read-out: MIC
M. dispar NCTC 10125 = assay: MIC against mycoplasma in vitro; assay type: cell-based; conditions: 144 h; M. dispar NCTC 10125; 6 days, 37° C.; read-out: MIC
M. pneumoniae ATCC 15492 = assay: MIC against mycoplasma in vitro; assay type: cell-based; conditions: Mycoplasmoides pneumoniae, ATCC15492, 144 h; M. pneumoniae ATCC 15492; 6 days, 37° C.; read-out: MIC
E. coli ESS = assay: MIC against human bacteria in vitro; assay type: cell-based; conditions: Escherichia coli; E. coli ESS; 5% chocolated horse blood agar, 18 hours; read-out: MIC
[6] = test system: Pasteurella multocida 1633; assay: MIC against human bacteria in vitro; assay type: cell-based; conditions: Pasteurella multocida 1633; 5% chocolated horse blood agar, 18 hours; read-out: MIC
[7] = test system: Haemophilus influenzae Wy21; assay: MIC against human bacteria in vitro; assay type: cell-based; conditions: Haemophilus influenzae Wy21; 5% chocolated horse blood agar, 18 hours; read-out: MIC
Bacillus subtilis 6633 = assay: MIC against human bacteria in vitro; assay type: cell-based; conditions: Bacillus subtilis 6633; 5% chocolated horse blood agar, 18 hours; read-out: MIC
[8] = test system: Corynebacterium xerosis 9755; assay: MIC against human bacteria in vitro; assay type: cell-based; conditions: Corynebacterium xerosis 9755; 5% chocolated horse blood agar, 18 hours; read-out: MIC
Sarcina lutea 8340 = assay: MIC against human bacteria in vitro; assay type: cell-based; conditions: Micrococcus luteus; Sarcina lutea 8340; 5% chocolated horse blood agar, 18 hours; read-out: MIC
Staph. aureus Oxford [9] = assay: MIC against human bacteria in vitro; assay type: cell-based; conditions: Staphylococcus aureus; Staph. aureus Oxford; 5% chocolated horse blood agar, 18 hours; read-out: MIC
Staph. aureus Russell = assay: MIC against human bacteria in vitro; assay type: cell-based; conditions: Staphylococcus aureus; Staph. aureus Russell; 5% chocolated horse blood agar, 18 hours; read-out: MIC
Staph. aureus W2827 = assay: MIC against human bacteria in vitro; assay type: cell-based; conditions: Staphylococcus aureus; Staph. aureus W2827; 5% chocolated horse blood agar, 18 hours; read-out: MIC
Strep. agalactiae 2788-B = assay: MIC against human bacteria in vitro; assay type: cell-based; conditions: Streptococcus agalactiae; Strep. agalactiae 2788-B; 5% chocolated horse blood agar, 18 hours; read-out: MIC
Strep. pneumoniae CN33 = assay: MIC against human bacteria in vitro; assay type: cell-based; conditions: Streptococcus pneumoniae; Strep. pneumoniae CN33; 5% chocolated horse blood agar, 18 hours; read-out: MIC
S. dublin S7 = assay: MIC against veterinary bacteria in vitro; conditions: Salmonella enterica, S7, 18 h
Description: (§1) The activity of the compounds of the Examples against various veterinarily important bacteria, was assayed in vitro using two-fold serial dilutions in Diagnostic Sensitivity Test Agar inoculated with 10^4 organisms.

Bord. bronchiseptica B08 = assay: MIC against veterinary bacteria in vitro; conditions: Bordetella bronchiseptica, B08, 18 h
Description: as §1

Past. multocida PA1 = assay: MIC against veterinary bacteria in vitro; conditions: Pasteurella multocida, PA1, 18 h
Description: as §1

Past. multocida PA2 = assay: MIC against veterinary bacteria in vitro; conditions: Pasteurella multocida, PA2, 18 h
Description: as §1

Past. haemolytica PA5 = assay: MIC against veterinary bacteria in vitro; conditions: Mannheimia haemolytica, PA5, 18 h
Description: as §1

[10] = test system: Erysipelothrix rhusiopathiae NCTC 8163; assay: MIC against veterinary bacteria in vitro; conditions: Erysipelothrix rhusiopathiae, NCTC8163, 18 h
Description: as §1

[11] = test system: Corynebacterium pyogenes CY1; assay: MIC against veterinary bacteria in vitro; conditions: CY1, 18 h
Description: as §1

[12] = test system: Staph. aureus B4 (pen. resistant); assay: MIC against veterinary bacteria in vitro; conditions: Staphylococcus aureus, 18 h
Description: as §1

Staph. aureus Oxford [13] = assay: MIC against veterinary bacteria in vitro; conditions: Staphylococcus aureus, 18 h
Description: as §1

[14] = test system: Strep. suis (group D) SPS11; assay: MIC against veterinary bacteria in vitro; conditions: Streptococcus suis, 18 h
Description: as §1

Strep. agalactiae SPA1 = assay: MIC against veterinary bacteria in vitro; conditions: Streptococcus agalactiae, SPA1, 18 h
Description: as §1

Structure (SMILES)	MIC (M. suipneumoniae JF 435)	MIC (M. suipneumoniae HK(2))	MIC [1]	MIC [2]	MIC (M. suipneumoniae LABER)	MIC (M. suipneumoniae UCD 1)	MIC [3]	MIC [4]	MIC (M. hyorhinis ATCC 23234)	MIC (M. hyorhinis ATCC 25021)	MIC [5]	MIC (M. dispar NCTC 10125)	MIC (M. pneumoniae ATCC 15492)	MIC (E. coli ESS)	MIC [6]	MIC [7]	MIC (Bacillus subtilis 6633)	MIC [8]	MIC (Sarcina lutea 8340)	MIC (Staph. aureus Oxford [9])	further results
C/C(=C\c1ncc(-c2ccc([S+](C)[O-])cc2)o1)C[C@@H]1OC[C@H](C[C@@H]2O[C@H]2[C@@H](C)[C@H](C)O)[C@@H](O)[C@H]1O (stereo partly shown) [Example 11, 5-p-Methylsulphinylphenyl-2-(1-normon-2-yl) oxazole A]	0.25 µg/mL (≈ 0.494 µM)	0.25 µg/mL (≈ 0.494 µM)	0.25 µg/mL (≈ 0.494 µM)	0.1 µg/mL (≈ 0.198 µM)	0.1 µg/mL (≈ 0.198 µM)	0.25 µg/mL (≈ 0.494 µM)	0.25 µg/mL (≈ 0.494 µM)	0.25 µg/mL (≈ 0.494 µM)	0.1 µg/mL (≈ 0.198 µM)	0.1 µg/mL (≈ 0.198 µM)	0.25 µg/mL (≈ 0.494 µM)	0.1 µg/mL (≈ 0.198 µM)	0.5 µg/mL (≈ 0.989 µM)	128 µg/mL (≈ 253 µM)	8 µg/mL (≈ 15.8 µM)	4 µg/mL (≈ 7.91 µM)	4 µg/mL (≈ 7.91 µM)	> 128 µg/mL	> 128 µg/mL	16 µg/mL (≈ 31.6 µM)	MIC (Staph. aureus Russell): 16 µg/mL (≈ 31.6 µM); MIC (Staph. aureus W2827): 16 µg/mL (≈ 31.6 µM); MIC (Strep. agalactiae 2788-B): 4 µg/mL (≈ 7.91 µM); MIC (Strep. pneumoniae CN33): 4 µg/mL (≈ 7.91 µM); MIC (S. dublin S7): > 80 µg/mL; MIC (Bord. bronchiseptica B08): > 80 µg/mL; MIC (Past. multocida PA1): 5 µg/mL (≈ 9.89 µM); MIC (Past. multocida PA2): 0.625 µg/mL (≈ 1.24 µM); MIC (Past. haemolytica PA5): 40 µg/mL (≈ 79.1 µM); MIC [10]: > 80 µg/mL; MIC [11]: > 80 µg/mL; MIC [12]: 5 µg/mL (≈ 9.89 µM); MIC (Staph. aureus Oxford [13]): 2.5 µg/mL (≈ 4.94 µM); MIC [14]: 5 µg/mL (≈ 9.89 µM); MIC (Strep. agalactiae SPA1): 2.5 µg/mL (≈ 4.94 µM)
C/C(=C\c1ncc(CCCCCCCC(=O)O)o1)C[C@@H]1OC[C@H](C[C@@H]2O[C@H]2[C@@H](C)[C@H](C)O)[C@@H](O)[C@H]1O [Example 12, Sodium 8-[2-(1-normon-2-yl)-5-oxazolyl]-octanoate A]	> 10 µg/mL	> 10 µg/mL	> 10 µg/mL	10 µg/mL	> 10 µg/mL	> 10 µg/mL	10 µg/mL	> 10 µg/mL	5 µg/mL	5 µg/mL	5 µg/mL	5 µg/mL	> 10 µg/mL	> 16 µg/mL	4 µg/mL	2 µg/mL	4 µg/mL	> 16 µg/mL	> 16 µg/mL	8 µg/mL	MIC (Staph. aureus Russell): 8 µg/mL; MIC (Staph. aureus W2827): 8 µg/mL; MIC (Strep. agalactiae 2788-B): 16 µg/mL; MIC (Strep. pneumoniae CN33): 16 µg/mL; MIC (S. dublin S7): > 40 µg/mL; MIC (Bord. bronchiseptica B08): > 40 µg/mL; MIC (Past. multocida PA1): 2.5 µg/mL; MIC (Past. multocida PA2): 0.156 µg/mL; MIC (Past. haemolytica PA5): 40 µg/mL; MIC [10]: > 40 µg/mL; MIC [11]: > 40 µg/mL; MIC [12]: 2.5 µg/mL; MIC (Staph. aureus Oxford [13]): 0.625 µg/mL; MIC [14]: 20 µg/mL; MIC (Strep. agalactiae SPA1): 20 µg/mL
